In patent US10995177B2 (priority 2018, dated 2021):

Legend:
[1] = system: K. pneumoniae 9170; test: Resistance development by serial passaging at sub-lethal concentrations; format: cell-based, Klebsiella pneumoniae
Experimental: To test bacterial resistance and resistance prevention, a sub-lethal dose (so as to not kill all bacteria) of the respective antimicrobials was repeatedly applied to K. pneumoniae samples for 24 hours at each passage, wherein the bacteria were allowed to replicate and/or mutate. MIC values of the respective antimicrobials were then measured after each repetition to monitor MIC changes. An increase in MIC value indicates development of resistance in the bacteria. In particular, samples of K. pneumoniae 9170 bacteria were first exposed to the respective antimicrobials (e.g., All polymers having Structures I, IV and V, imipenem and levofloxacin) for the determination of MICs as described above. Subsequently, 50 μL of bacteria from wells of 0.5×MIC were harvested and grown overnight, and then subjected to MIC determination for up to 20 similar serial passages (e.g., 20 single applications once a day for 20 days).
Unfortunately, antibiotic resistance has raised a global concern over the past few years.

[2] = system: K. pneumoniae 9170; test: In vivo efficacy (ED50/ED95) in bacteria-caused lung infection mouse model; design: species or system mice; details: Klebsiella pneumoniae, 9170, ip
Experimental: In this regard, immunosuppressed mice (7 weeks old) were used for the following in vivo studies. Immunosuppression was induced by intraperitoneal injection of 200 mg/kg cyclophosphamide 4 days prior to infection. The mice were anesthetized by intraperitoneal injection of 1% pentobarbital (40 mg/kg, Sigma). The mice were then infected with K. pneumoniae 9170 to determine the minimum lethal dose for subsequent effective does and efficacy testing. Overnight cultures of K. pneumoniae 9170 were harvested and suspended in PBS. Subsequently, the cyclophosphamide-pretreated mice were intranasally injected with 25.0 μL of the bacterial suspension at designated doses (e.g., 1.0×10^8, 2.5×10^8, 5×10^8, 1.0×10^9, 2.0×10^9 CFU/mL, six mice per group). The minimum lethal dose (LD), the lowest concentration sufficient to cause 100% mortality, was determined from the survival rate of mice at 5 days post-infection by the BLISS method.
The effective doses ED50 and ED95 doses of the respective polymers and imipenem for comparison, were tested using a bacteria-caused lung infection mouse model as follows. Firstly, a bacterial suspension with the minimum lethal dose (25.0 μL) was introduced to the above described cyclophosphamide-pretreated mice intranasally. […] The number of surviving mice in each group was recorded for 5.0 day to estimate ED50 and ED95 via the BLISS method.

[3] = system: MDR clinical isolates of K. pneumoniae, E. coli, A. baumannii, P. aeruginosa, E. faecium and MRSA; test: MIC by broth microdilution against different types and strains of MDR clinically isolated bacteria; format: cell-based; details: Gram-negative and Gram-positive MDR clinical isolates
Experimental: The MICs of the guanidinium functionalized polymers and the respective antibiotics against the clinical isolates were measured via the broth microdilution method. In accordance with the broth microdilution method, the MDR microbes including one or more strains of K. pneumoniae, E. coli, A. baumannii, P. aeruginosa, E. coli, E. faecium, and MRSA were harvested in mid exponential growth phase after grown overnight in Mueller-Hinton (MH) agar plates at 37° C. The antimicrobial agents were prepared in MH broth (MHB) at various concentrations. The bacteria suspensions were then diluted with phosphate-buffer saline (PBS, PH 7.4) to adjust the turbidity approximately to the Standard McFarland 0.6, which corresponds to the concentration of 1×10^8 colony-forming unit (CFU)/mL, after which the bacteria suspension was further diluted by 100-fold with MHB (1×10^6 CFU/mL). Subsequently, equal volumes (100 microliters (μL)) of bacterial suspension and agent solution prepared previously were mixed in each well of a 96-well plate and incubated for 18 h at 37° C. Broth containing bacteria alone was employed as the negative control, and each MIC was tested in triplicate.
To facilitate comparison, imipenem and vancomycin, typical first-line therapies against Gram-negative and Gram-positive pathogens, were employed as standards or control antibiotics.

| SMILES | increase of MIC ([1]; by the 11th passage) [times] | increase of MIC ([1]; by the 20th passage) [fold] | ED50 [2] [mg/kg] | increase of MIC ([1]; by the 7th passage) [times] | spectrum of antibacterial activity [3] |
| --- | --- | --- | --- | --- | --- |
| C[C@@H](O)[C@H]1C(=O)N2C(C(=O)O)=C(SCCN=CN)C[C@H]12 [imipenem] | 2 | 4 | 5.93 | – | – |
| C[C@H]1COc2c(N3CCN(C)CC3)c(F)cc3c(=O)c(C(=O)O)cn1c23 [levofloxacin] | – | 16 | – | 2 | – |
| CN[C@H](CC(C)C)C(=O)N[C@H]1C(=O)N[C@@H](CC(N)=O)C(=O)N[C@H]2C(=O)N[C@H]3C(=O)N[C@H](C(=O)N[C@H](C(=O)O)c4cc(O)cc(O)c4-c4cc3ccc4O)[C@H](O)c3ccc(c(Cl)c3)Oc3cc2cc(c3O[C@@H]2O[C@H](CO)[C@@H](O)[C@H](O)[C@H]2O[C@H]2C[C@](C)(N)[C@H](O)[C@H](C)O2)Oc2ccc(cc2Cl)[C@H]1O [vancomycin] | – | – | – | – | only demonstrated efficacy against Gram-positive strains |
